Measured values reported in patent EP2908837B1, “COMPOSITIONS FOR DRUG DELIVERY” (priority 2012, dated 2014).
Non-standard residues stand in square brackets, D forms with d. Residues, ends and D or L forms follow the SMILES beside them.

Test: In vitro plasma stability (half-life) in freshly collected mouse blood, LC-MS/MS
Assay type: in vitro ADME
Conditions: up to 8 hours at 37°C in Swiss (CD-I) mouse blood, analyte quantified in the plasma fraction
Experimental: In vitro plasma stability (i.e. half-life or t1/2) of the peptides of the invention was also assessed. Briefly, each peptide was incubated up to 8 hours at 37°C in freshly collected Swiss (CD-I) mouse blood and the analyte was quantified in the plasma fraction at several time-points using a liquid chromatography-tandem mass spectrometry (LC-MS/MS) analytical method. […]
In the case of `CSCC[C@@H]1NC(=O)[C@H](N)CSSC(C)(C)[C@@H](C(=O)O)NC(=O)CN(C)C(=O)[C@H](CCCNC(=N)N)NC(=O)[C@H](CC(C)C)NC(=O)[C@H](CCCNC(=N)N)NC(=O)[C@@H]2CCCCN2C1=O` [SEQ ID NO: 5, (D)-Cys-Met-Pip-Arg-Leu-Arg-Sar-Pen], the half-life is reported as 9.2 h. Compound `CSCC[C@@H]1NC(=O)[C@H](N)CSSC(C)(C)[C@@H](C(=O)O)NC(=O)CNC(=O)[C@H](CCCNC(=N)N)NC(=O)[C@H](CC(C)C)NC(=O)[C@H](CCCNC(=N)N)NC(=O)[C@@H]2CCCCN2C1=O` [SEQ ID NO: 4, (D)-Cys-Met-Pip-Arg-Leu-Arg-Gly-Pen] has a half-life of 3.9 h. With `CSCC[C@@H]1NC(=O)[C@H](N)CSSC(C)(C)[C@@H](C(=O)O)NC(=O)CNC(=O)[C@H](CCCNC(=N)N)NC(=O)[C@H](CC(C)C)NC(=O)[C@H](CCCNC(=N)N)NC(=O)[C@@H]2CSCN2C1=O` [SEQ ID NO: 1, (D)-Cys-Met-Thz-Arg-Leu-Arg-Gly-Pen] the half-life was 4 h. Compound `CSCC[C@@H]1NC(=O)[C@H](N)CSSC(C)(C)[C@@H](C(=O)O)NC(=O)CN(C)C(=O)[C@H](CCCNC(=N)N)NC(=O)[C@H](CC(C)C)NC(=O)[C@H](CCCNC(=N)N)NC(=O)[C@@H]2CSCN2C1=O` [SEQ ID NO: 2, (D)-Cys-Met-Thz-Arg-Leu-Arg-Sar-Pen] has a half-life of 4.9 h. `CSCC[C@@H]1NC(=O)[C@H](N)CSSC[C@@H](C(=O)O)NC(=O)CN(C)C(=O)[C@H](CCCNC(=N)N)NC(=O)[C@H](CC(C)C)NC(=O)[C@H](CCCNC(=N)N)NC(=O)[C@@H]2CCCCN2C1=O` [SEQ ID NO: 3, (D)-Cys-Met-Pip-Arg-Leu-Arg-Sar-Cys] showed a half-life of 5.9 h.

Test: In situ brain perfusion, cerebral transfer coefficient (Kin)
Assay type: in vivo, mouse
Conditions: in situ brain perfusion 2-5 min, perfusate flow rate 2 ml/min
Experimental: The in situ brain perfusion technique (in adult male OF1 mouse) is used to illustrate passage in the brain across the BBB.
Radioactive peptides with high specific radioactivity (RAS, up to 100 Ci/mmol) are prepared by a strategy of acylation of the N-term amine function by tritiated propionic (or propanoic) anhydride or tritiated N-propionyl-succinimide (NPS).
The techniques briefly summarized below were developed previously to study the distribution in the brain of active substances and, in particular, the role of the BBB and, more particularly, of LDLR in the penetration of these molecules in the brain. In situ brain perfusion techniques are among the most technically demanding and the most difficult to perform in the mouse. […]
This strategy of in situ brain perfusion normally carried out in the rat was adapted for mouse (Dagenais et al., 2000, J Cereb Blood Flow Metab., 20(2), 381-6) in order to broaden its application for evaluating the parameters of transport kinetics at the BBB and the blood-retinal barrier, and this also in transgenic and KO mutant mice for the receptors, enzymes or transporters of active substances. […] The duration of the fixed flow-rate perfusion is monitored. […]
With `CC(C)C[C@H](NC(=O)[C@H](Cc1ccccc1)NC(=O)CNC(=O)[C@@H](C)NC(=O)[C@@H](N)Cc1ccc(O)cc1)C(=O)N[C@@H](CCCNC(=N)N)C(=O)O` [Dalargine] (H-Y[dA]GFLR-OH) the “Kin (transfer coefficient)” value was “≈ 0.9 x 10^-4 ml/s/g”.
